Test results: patent US20120258117A1, “Methods and compositions for modulation of histone ubiquitination” (priority 2011, published 2012)

Experiments:
[1] = system: U87 cells; experiment: Clonogenic assay (plating efficiency); format: cell-based, human; conditions: up to 9 days treatment, re-plated 1000-4000 cells, 14 days without resveratrol, dose-dependent
Description: (§1) Monolayer cultures of glioma cells were trypsinized and appropriate cell dilutions were re-plated. After 14 days, cultured cells were stained with 0.4% Coomassie Blue G250 in 50% methanol and 5% acetic acid. Colonies of 50 cells or more were counted. Plating efficiencies (PE) were calculated using the formula PE=(number of colonies counted/number of cells seeded)×100%. […] Monolayer cultures of glioma cells were trypsinized and seeded 1000, 2000, and 4000 cells separately in 60 mm culture dishes for incubation without further resveratrol treatment. After two weeks, these cell cultures were stained with 0.4% Coomassie Blue G250 in 50% methanol and 5% acetic acid. Colonies that contained more than 50 cells were counted. Cell clonogenicity was calculated with plating efficiencies (PE) using the formula PE=(number of colonies counted/number of cells seeded)×100%.

[2] = system: U118 cells; experiment: Clonogenic assay (plating efficiency); format: cell-based, human; conditions: up to 9 days treatment, re-plated 1000-4000 cells, 14 days without resveratrol, dose-dependent
Description: as §1

[3] = system: U87 cells; experiment: Cellular hypertrophy / cell morphology; format: cell-based, human
Text: Specifically, resveratrol transformed spindle-shaped glioma cells to enlarged and irregular flatten-shaped ones. The mean diameter of the resveratrol-treated U87 was 5 fold longer than the diameter parallel to the spindle axis of the mock-or vehicle-treated glioma cells. In contrast, mock and vehicle (acetone) treatment had no effect on inducing cellular hypertrophy.
It was then examined whether depletion of RNF20 could induce cellular senescence in glioma cells. Depletion of RNF20 induced similar cellular hypertrophy as observed with resveratrol treatment. Specifically, depletion of RNF20 transformed spindle-shaped glioma cells into extremely enlarged and irregular flatten-shaped ones (data not shown).

[4] = system: U87 cells; experiment: Cell proliferation (viable cell count, Trypan blue exclusion); format: cell-based, human; conditions: cells counted at 3, 6 and 9 days post treatment, dose- and time-dependent
Description: (§2) U87 MG and U118 MG (hereafter abbreviated as U87, U118 respectively) human glioblastoma (glioma) cell lines were kindly provided by Dr. Hui Zhang and Dr. Hong Sun. MCF7 (human breast cancer), H1299 (non-small cell lung carcinoma), and PC3 (human prostate cancer) cell lines were obtained from Dr. Giuseppe Pizzorno. Normal human dermal fibroblasts, HDF and normal human mammary epithelial cells, HMEpC, were purchased from Cell Applications (San Diego, Calif.). U118, U87, and MCF7 cultures were grown in high-glucose DMEM supplemented with 10% Fetal Bovine Serum (FBS, HyClone, Waltham, Mass.) and 1% Penicillin/Streptomycin. H1299 was grown in RPMI with 10% FBS and 1% Pen/Strep. PC3 cells were in F12K Medium with 10% FBS and 1% antibiotics. […] Cell number was measured by a hemacytometer (Hausser Scientific, Horsham, Pa.). Cell population doubling time (Td) was calculated from the exponential portion of the growth curve using the equation Td=0.693t/ln(Nt/N0), where t is time, and Nt and N0 represent cell numbers at time t and initial time, respectively (Y. Zhang, et al., Cancer Res 62 (2002) 1205-12). […]
(§3) To examine the effects of resveratrol on glioma cells, 5×10^4 U87 or U118 glioblastoma (Grade IV glioma cell) lines were plated in 60 mm dishes. […] Cells were then trypsinized and cell numbers counted at 3, 6, and 9 days post treatment.

[5] = system: U118 cells; experiment: as above; format: cell-based, human; conditions: cells counted at 3, 6 and 9 days post treatment, dose- and time-dependent
Description: as §2, §3

[6] = system: U87 xenograft; experiment: Growth of human tumor xenograft from resveratrol-pretreated cells; format: in vivo, nude (nu/nu) mice; conditions: U87 treated 9 days in culture, 2×10^6 viable cells s.c. in nude mice; volume at 27 days post injection
Description: (§4) U87 or U118 Cells (2,000,000 in 0.1 ml PBS) were injected subcutaneously in the right flank of the female nude (nu/nu) mice (4-6 weeks old; Charles River Laboratories, Wilmington, Mass.). Five nude mice were used for each group. U87 tumor volume was measured at 27 days post injection while U118 tumor volume at 125 days post injection. When tumors were palpable, they were measured by a Vernier caliper in indicated days after injection. Tumor volume (TV) was calculated as follows: TV (mm^3)=LXW^2/2, where L is the longest dimension of the tumor (in mm), and W is the shortest dimension of the tumor. […] Glioma cells were then trypsinized, and 2×10^6 viable cells (by Trypan blue exclusion assay) were collected in 0.1 ml PBS. These cells were subsequently injected subcutaneously in the right flank of nude mice [female (nu/nu), 4-6 weeks old, 5 mice per group]. When the tumor was palpable, the size was measured with a Vernier caliper. Tumor volume was calculated (TV) using the formula: TV (mm^3)=LXW^2/2, in which L was the longest dimension of the tumor (in mm), and W was the shortest dimension of the tumor.

[7] = system: U118 xenograft; experiment: as above; format: in vivo, nude (nu/nu) mice; conditions: U118 treated 9 days in culture, 2×10^6 viable cells s.c. in nude mice; volume at 125 days post injection
Description: as §4

[8] = system: mono-ubiquitination of histone H2B at K120 (uH2B); experiment: Western analysis of uH2B, acute (4-hour) resveratrol treatment; format: cell-based, human
Description: (§5) For short-term resveratrol treatment, cells in 60 mm dishes were allowed to grow to 40%-50% confluency. Their original media were changed to 5 ml DMEM media containing glucose (4.5 g/L) as the only carbon source (without both L-glutamine and sodium pyruvate). After one hour of media change, cells were collected as non-treated or treated with 5 μL acetone or resveratrol in 5 μL acetone vehicle for 4 hours and then collected for Western analysis. For long-term resveratrol treatment, 3×10^5 of U87 or U118 glioma cells were plated in 100 mm dishes. One day later, the culture media were replaced with fresh medium (10 mL/dish). […]
(§6) Cultured cells were harvested on ice (3-5 min) by scraping in the medium, centrifuged with about 300 relative centrifugal forces (RCF) for 2 minutes. […] Total protein was separated by 12% SDS polyacrylamide gel electrophoresis and analyzed with antibodies to H2B (Millipore, Billerica, Mass.), mono-ubiquitinated H2B (uH2B, MediMabs, Montreal, Quebec, Canada), RNF20 (Abcam, Cambridge, Mass.), p53 (Santa Cruz Biotechnology, Santa Cruz, Calif.). Immunoreactive bands were detected using SuperSignal kit (Thermo Scientific, Waltham, Mass.). […]

[9] = system: mono-ubiquitination of histone H2B at K120 (uH2B); experiment: Western analysis of uH2B, chronic (up to 9-day) resveratrol treatment; format: cell-based, human
Description: as §5, §6

[10] = system: U118 cells; experiment: Cellular hypertrophy / cell morphology; format: cell-based, human; conditions: resveratrol treatment
[11] = system: U118 glioma cells; experiment: Senescence-associated-β-galactosidase (SA-β-gal) staining; format: cell-based, human; conditions: resveratrol-induced hypertrophic cells
Description: (§7) Senescence-β-galactosidase staining was performed with a kit (Cat. #9860, Cell Signaling, Danvers, Mass.) according to manufacturer's protocol. Briefly, cells in 35 mm well were washed with 2 mL PBS, fixed for 10-15 minutes in 2 mL fixative solution, washed twice with 2 mL PBS, and then incubated in SA-β-gal staining solution overnight at 37° C. To determine whether cellular hypertrophy induced by resveratrol was associated with cellular senescence of glioma cells, expression of senescence-associated-β-galactosidase (SA-β-gal) marker was tested (G. P. Dimri, et al., Proc Natl Acad Sci USA 92 (1995) 9363-7; G. P. Dimri, et al., Biol Signals 5 (1996) 154-62).

[12] = system: U87 glioma cells; experiment: as above; format: cell-based, human; conditions: resveratrol-induced hypertrophic cells
Description: as §7

Compound: Oc1ccc(/C=C/c2cc(O)cc(O)c2)cc1 [resveratrol, 3,4′,5-trihydroxy-trans-stilbene]
- clonogenicity (plating efficiency, colonies of more than 50 cells) [1]: marked decrease in their propensity for forming colonies
- clonogenicity (plating efficiency, colonies of more than 50 cells) [2]: marked decrease in their propensity for forming colonies
- mean diameter of treated cells versus diameter parallel to the spindle axis of mock- or vehicle-treated cells [3]: 5 fold
- cellular hypertrophy (cell volume and cell morphology) ([3]; resveratrol treatment): induced dramatic changes in cell volume and cell morphology
- proliferation of glioma cells (viable cell number) [4]: significantly inhibited proliferation
- proliferation of glioma cells (viable cell number) [5]: significantly inhibited proliferation
- tumorigenicity (tumor volume) in xenograft model [6]: inhibited the tumorigenecity
- tumorigenicity (tumor volume) in xenograft model [7]: inhibited the tumorigenecity
- uH2B level (Western) ([8]; 10, 100, 500 μM for 4 h, U87, U118, MCF7, H1299, PC3, HDF, HMEpC): inhibited uH2B within 4 hours in a dose-dependent manner
- uH2B level (Western) ([8]; acute incubation, high dose 500 μM): effective in inhibiting uH2B
- uH2B level (Western) ([9]; U87, chronic treatment up to 9 days, 6, 20, 60 μM): inhibited uH2B
- uH2B level (Western) ([9]; U118, chronic treatment up to 9 days, 6, 10, 20 μM): inhibited uH2B
- cellular hypertrophy (cell volume and cell morphology) [10]: induced dramatic changes in cell volume and cell morphology
- expression of SA-β-gal senescence marker [11]: SA-β-gal was detected
- expression of SA-β-gal senescence marker [12]: SA-β-gal was detected
